Results taken from US4637997A, “Hexapeptide, process for obtaining II and the pharmaceutical compositions containing II” (Institut National de la Sante et de la Recherche Medicale, priority 1984, dated 1987).
Peptide text beside a SMILES is read from it.

System: Klebsiella pneumoniae
Assay: experimental infection with Klebsiella pneumoniae in the mouse
Assay type: in vivo
Settings: i.v.

## CC[C@H](C)[C@H](NC(=O)[C@@H]1CCCN1C(=O)[C@H](CCC(=O)O)NC(=O)[C@@H](N)C(C)C)C(=O)N1CCC[C@H]1C(=O)N[C@@H](Cc1ccc(O)cc1)C(=O)O [hexapeptide of formula (I), Val-Glu-Pro-Ile-Pro-Tyr] (H-VEPIPY-OH)
  dose from which remarkable activity against experimental infection is exhibited: ≥ 0.05 mg/kg
